US12509460B2 (Skyhawk Therapeutics, Inc., priority 2019, dated 2025)
Like-named read-outs stand apart in the source and are kept apart here.

Legend:
[1] = tested on: SMN FL and SMN Δ7 in spinal muscular atrophy (SMA) patient fibroblasts (GM03813, Coriell); assay: Quantitative splicing assay (SMN), qPCR; format: cell-based, human; details: read-out: SMN2 Splicing FL EC50
Protocol: Spinal muscular atrophy (SMA) patient fibroblasts (GM03813, Coriell) are plated in 96-well plates at 50,000 cells/well. […] Treated cells are lysed and cDNA synthesized using the Fast Advanced Cells-to-Ct kit (Thermofisher A35378) according to the manufacturer's instructions. 2 μL of each cDNA are used in qPCR reactions. […] Reactions are run in a Quant Studio 6 qPCR instrument with default settings.

MDR1 (P-gp) = assay: Blood-brain-barrier (BBB) penetration potential via MDCK-MDR1 permeability assay; details: dog; for Papp A→B at 120 min, 5 μM: MDCK-MDR1, pH 7.4, MDCK-MDR1: Papp A-B; for Papp B→A at 120 min, 5 μM: MDCK-MDR1, pH 7.4, MDCK-MDR1: Papp B-A
[2] = tested on: MDR1-MDCK cell monolayers; assay: as above
MDR1 = assay: as above; details: dog, MDCK-MDR1, pH 7.4, MDCK-MDR1: Efflux
[3] = Quantitative splicing assay (HTT), qPCR; format: cell-based, human; details: Homo sapiens, GM04724, 24 h, GM04724 lymphoblasts, read-out: HTT Splicing: E49-50 EC50
Protocol: Example A9: Quantitative Splicing Assay (HTT)
GM04724 (CAG 70/20) Huntington's disease patient lymphoblasts (Coriell) are plated in 96-well v-bottom plates at 50,000 cells/well. Immediately after plating, cells are dosed with compound for 24 h at concentrations ranging from 2.5 uM to 0.15 nM (0.1% DMSO). Treated cells are lysed and cDNA synthesized using the Fast Advanced Cells-to-Ct kit (Thermofisher A35378) according to the manufacturer's instructions. 2 uL of each cDNA are used in qPCR reactions to confirm the compound-induced inclusion of a cryptic exon within intron 49 of the Huntingtin (HTT) transcripts. The qPCR reactions are prepared in 384-well plates in 10 uL volume, using TagMan™ Fast Advanced Master Mix [ThermoFisher, 4444965] with primers and probes shown in the table below. Reactions are run in a Quant studio 6 qPCR instrument with default settings.

[4] = tested on: SMN protein in spinal muscular atrophy (SMA) patient fibroblasts (GM03813, Coriell); assay: SMN protein assay, Mesoscale Discovery (MSD); format: cell-based, human; details: read-out: SMN2 protein EC50
How it was run: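 Absolute SMN levels were quantified by MSD against an SMN protein standard curve (1 μg/ml to 19.5 pg/ml) run on each plate. Samples were lysates of GM03813 patient fibroblasts (7000 cells/well) treated 48 hours with compound doses from 2.5 μM down to 0.6 nM.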

[5] = tested on: mHTT protein in GM04724 (CAG 70/20) Huntington's disease patient lymphoblast cells; assay: mHTT protein assay, 2B7-MW1 assay via Mesoscale Discovery (MSD); format: cell-based, human
How it was run: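 Signal from the 2B7-MW1 antibody pair on MSD, rising with polyQ length and smaller HTT fragments, measured mHTT after 48 h compound exposure (0.6 nM–10 μM) in GM04724 cells. A parallel replicate plate gave CellTiter Glo viability.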

[6] = Homo sapiens, Fibroblast, 24 h, SMA patient fibroblasts GM03813, 24 h, qPCR
[7] = SMA patient fibroblasts GM03813, 48 hours, MSD
[8] = GM04724 Huntington's disease patient lymphoblasts
[9] = Homo sapiens, Fibroblast, 24 h, SMA patient fibroblasts (GM03813), 24 h
[10] = SMA patient fibroblasts (GM03813), 48 hours
[11] = GM04724 (CAG 70/20) Huntington's disease patient lymphoblasts

SMILES	EC50 [1, 6]	Papp A→B at 120 min, 5 μM (MDR1 (P-gp); A-B direction)	Papp B→A at 120 min, 5 μM (MDR1 (P-gp); B-A direction)	MDCK-MDR1: % Recov A-B ([2]; A-B direction)	MDCK-MDR1: % Recov B-A ([2]; B-A direction)	efflux ratio at 120 min, 5 μM (MDR1; efflux ratio)	EC50 ([3]; qPCR)	EC50 [4, 7]	EC50 [5, 8]	EC50 [1, 9]	Papp A→B at 120 min, 5 μM (MDR1 (P-gp); A-B)	Papp B→A at 120 min, 5 μM (MDR1 (P-gp); B-A)	MDCK-MDR1: % Recov A-B ([2]; A-B)	MDCK-MDR1: % Recov B-A ([2]; B-A)	efflux ratio at 120 min, 5 μM (MDR1)	EC50 [3]	EC50 [4, 10]	EC50 [5, 11]	EC50 ([1]; SMA patient fibroblasts GM03813, 24 h, qPCR)
CN(c1ccc(-c2cc(F)c(-n3ccnn3)cc2O)nn1)[C@@H]1C[C@H]2CC[C@H](N2)[C@@H]1F [Compound 52A, 4-fluoro-2-(6-(((1S,2S,3R,5R)-2-fluoro-8-azabicyclo[3.2.1]octan-3-yl)(methyl)amino)pyridazin-3-yl)-5-(1H-1,2,3-triazol-1-yl)phenol]	51 to 100 nM	6.63 ×10⁻⁶ cm/s	49.7 ×10⁻⁶ cm/s	86%	92%	8	101 to 500 nM	16 to 50 nM	16 to 50 nM										
Cc1cc(=O)c2cc(O)c(-c3ccc(N(C)[C@H]4C[C@@H]5CC[C@@H](N5)[C@H]4F)nn3)cc2o1 [Compound 49B, 7-(6-(((1R,2R,3S,5S)-2-fluoro-8-azabicyclo[3.2.1]octan-3-yl)(methyl)amino)pyridazin-3-yl)-6-hydroxy-2-methyl-4H-chromen-4-one]	0.01 to 15 nM	0.86 ×10⁻⁶ cm/s	32.9 ×10⁻⁶ cm/s	86%	91%	38	0.01 to 15 nM	0.01 to 15 nM	0.01 to 15 nM										
CN(c1ccc(-c2ccc(-c3cnn(C)c3)cc2O)nn1)[C@H]1C[C@@H]2CCC[C@@H](N2)[C@@H]1F [Compound 14B, 2-(6-(((1R,2S,3S,5S)-2-fluoro-9-azabicyclo[3.3.1]nonan-3-yl)(methyl)amino)pyridazin-3-yl)-5-(1-methyl-1H-pyrazol-4-yl)phenol]	51 to 100 nM	2.95 ×10⁻⁶ cm/s	32.1 ×10⁻⁶ cm/s	54%	91%	11	0.01 to 15 nM	0.01 to 15 nM	0.01 to 15 nM										
CN(c1ccc(-c2ccc(-n3cnc(Cl)c3)cc2O)nn1)C1CC2CC(F)(F)C(C1)N2 (single isomer, unassigned) [Compound 37A]	16 to 50 nM	17.3 ×10⁻⁶ cm/s	34.4 ×10⁻⁶ cm/s	52%	69%	2	0.01 to 15 nM	16 to 50 nM	16 to 50 nM										
CN(c1ccc(-c2cc3c(=O)n(C)cnc3cc2O)nn1)[C@@H]1C[C@H]2CC[C@H](N2)[C@@H]1F [Compound 85A, 6-(6-(((1S,2S,3R,5R)-2-fluoro-8-azabicyclo[3.2.1]octan-3-yl)(methyl)amino)pyridazin-3-yl)-7-hydroxy-3-methylquinazolin-4(3H)-one]	16 to 50 nM	0.67 ×10⁻⁶ cm/s	49.2 ×10⁻⁶ cm/s	99%	99%	74	16 to 50 nM	0.01 to 15 nM	0.01 to 15 nM										
CN(c1ccc(-c2cc3c(=O)n(C)ccc3cc2O)nn1)[C@H]1C[C@@H]2CC[C@H]([C@H]1F)N2C [Compound 98B, 7-(6-(((1R,2R,3S,5S)-2-fluoro-8-methyl-8-azabicyclo[3.2.1]octan-3-yl)(methyl)amino)pyridazin-3-yl)-6-hydroxy-2-methylisoquinolin-1(2H)-one]										16 to 50 nM	5.01 ×10⁻⁶ cm/s	52.6 ×10⁻⁶ cm/s	88%	87%	10	16 to 50 nM	16 to 50 nM	16 to 50 nM	
CN(c1ccc(-c2ccc(-n3ccnc3)cc2O)nn1)[C@H]1C[C@@H]2CCC[C@@H](N2)[C@H]1F [Compound 11B, 2-(6-(((1R,2R,3S,5S)-2-fluoro-9-azabicyclo[3.3.1]nonan-3-yl)(methyl)amino)pyridazin-3-yl)-5-(1H-imidazol-1-yl)phenol]	0.01 to 15 nM	2.4 ×10⁻⁶ cm/s	55 ×10⁻⁶ cm/s	77%	89%	23	0.01 to 15 nM	16 to 50 nM	0.01 to 15 nM										
CN(c1ccc(-c2ccc(C3=CCCC3)cc2O)nn1)[C@H]1C[C@@H]2CC[C@@H](N2)[C@H]1F [Compound 34B, 5-(cyclopent-1-en-1-yl)-2-(6-(((1R,2R,3S,5S)-2-fluoro-8-azabicyclo[3.2.1]octan-3-yl)(methyl)amino)pyridazin-3-yl)phenol]	16 to 50 nM	1.02 ×10⁻⁶ cm/s	2.81 ×10⁻⁶ cm/s	12%	48%	3	51 to 100 nM	16 to 50 nM	51 to 100 nM										
CN(c1ccc(-c2cc(F)c(-c3ccn(C)c(=O)c3)cc2O)nn1)[C@H]1C[C@@H]2CC[C@@H](N2)[C@H]1F [Compound 1B, 4-(2-fluoro-4-(6-(((1R,2R,3S,5S)-2-fluoro-8-azabicyclo[3.2.1]octan-3-yl)(methyl)amino)pyridazin-3-yl)-5-hydroxyphenyl)-1-methylpyridin-2(1H)-one]	0.01 to 15 nM	0.49 ×10⁻⁶ cm/s	40.4 ×10⁻⁶ cm/s	97%	98%	83	0.01 to 15 nM	0.01 to 15 nM	0.01 to 15 nM										
CN(c1ccc(-c2cc3cnccc3cc2O)nn1)[C@@H]1C[C@H]2CC[C@H](N2)[C@@H]1F (single isomer, unassigned) [Compound 7A]		3.31 ×10⁻⁶ cm/s	20.1 ×10⁻⁶ cm/s	65%	75%	6	16 to 50 nM	0.01 to 15 nM	0.01 to 15 nM										16 to 50 nM
Cc1nc2cc(-c3ccc(N(C)[C@@H]4C[C@H]5CC[C@H](N5)[C@@H]4F)nn3)c(O)cc2s1 [Compound 115A, 5-(6-(((1S,2S,3R,5R)-2-fluoro-8-azabicyclo[3.2.1]octan-3-yl)(methyl)amino)pyridazin-3-yl)-2-methylbenzo[d]thiazol-6-ol]										16 to 50 nM	4.7 ×10⁻⁶ cm/s	39.3 ×10⁻⁶ cm/s	93%	78%	8	16 to 50 nM	0.01 to 15 nM	0.01 to 15 nM	
COc1cnc(-c2ccc(-c3ccc(N(C)[C@@H]4C[C@H]5CCC[C@H](N5)[C@@H]4F)nn3)c(O)c2)cn1 [Compound 29A, 2-(6-(((1S,2S,3R,5R)-2-fluoro-9-azabicyclo[3.3.1]nonan-3-yl)(methyl)amino)pyridazin-3-yl)-5-(5-methoxypyrazin-2-yl)phenol]	501 to 10000 nM	1.85 ×10⁻⁶ cm/s	12.6 ×10⁻⁶ cm/s	26%	60%	7	16 to 50 nM	0.01 to 15 nM	16 to 50 nM										
